system: HEY; experiment: MTT cytotoxicity assay (Example 1); format: cell-based, human; conditions: 72 h
Description: (§1) Human breast cancer cells MDA-MB-435 were purchased from the American Type Culture Collection (Manassas, Va.). The HCT116 p53+/+ and HCT116 p53−/− cells were kindly provided by Dr. Bert Vogelstein (Johns Hopkins Medical Institutions, Baltimore, Md.). The human ovarian carcinoma cell line (HEY) which is naturally resistant to cisplatin, was kindly provided by Dr. Louis Dubeau, University of Southern California (USC) Norris Cancer Center, and NIH3T3 normal mouse fibroblast cells were kindly provided by Dr. Michael Press from USC. HEY and NIH3T3 cells were maintained as monolayer cultures in RPMI, HCT 116 cells in McCoy1s5A media and MDA-MB 435 in DMEM. Media were purchased from (Mediatech, Virginia) and supplemented with 10% fetal bovine serum (Gemini-Bioproducts, Woodland, Calif.), 2 mM L-glutamine and 5% Penicillin/streptomycin from Bio whittaker were purchased from VWR. Cells were incubated at 37° C. in a humidified atmosphere of 5% CO2. To remove the adherent cells from the flask for passaging and counting, cells were washed with PBS without calcium or magnesium, incubated with a small volume of 0.25% trypsin-EDTA solution (Sigma-Aldrich, St. Louis, Mo.) for 5-10 min, and washed with culture medium and centrifuged. All experiments were performed using cells at exponential growth stage. Cells were routinely checked for mycoplasma contamination using a PCR-based assay (Stratagene, Tex., USA).
(§2) Stock solutions (10 mM) of all compounds were prepared in DMSO and stored at −20° C. Further dilutions were made fresh in PBS or cell-culture media right before cell treatment.
(§3) Cytotoxicity was assessed by a 3-(4,s-dimethylthiazol-2-yl)-2,5-diphenyltetrazolium bromide (MTT) assay as previously described.^24 Briefly, cells were seeded in 96-well microtiter plates and allowed to attach overnight. Cells were subsequently treated with continuous exposure to the corresponding drug for 72 h. A MTT solution (at a final concentration of 0.5 mglml) was added to each well, and cells were incubated for 4 h at 37° C. After removal of the medium, DMSO was added and the absorbance was read at 570 nm. All assays were done in triplicate. The IC50 was then determined for each drug from a plot of log (drug concentration) versus percentage of cells killed.

Row | Structure (SMILES) | IC50 [µM]
1 | Brc1ccc(/C=N/Nc2nc3nonc3nc2Nc2cccc(Br)c2)cc1 [Compound 5] | 3
2 | Oc1ccc(Br)cc1/C=N/Nc1nc2nonc2nc1Nc1ccc(Cl)cc1 [Compound 6] | 1.6 ± 0.6
3 | O=C(O)c1cc(-c2ccc(/C=N/Nc3nc4nonc4nc3Nc3ccccc3F)o2)ccc1Cl [Compound 17] | 15
4 | O=C(Nn1c(Cc2ccccc2)nc2ccccc2c1=O)c1c(O)c2cccc3c2n(c1=O)CCC3 [Compound 28] | 15
5 | CCCCn1c(=O)c(C(=O)Nc2nnc(C)s2)c(O)c2ccccc21 [Compound 30] | 14
6 | C/C(=N\C(=N)Nc1nc(C)c2cc(C)ccc2n1)c1ccccc1C(=O)O [Compound 33] | 3
7 | COC(=O)/C=C1/N=C(Nc2nc3cc(C)ccc3o2)NC1=O [Compound 35] | 2

same assay, conditions: Homo sapiens, 72 h

Row | Structure (SMILES) | IC50 [µM]
8 | COC(=O)c1ccc(/C=N/Nc2nc3nonc3nc2Nc2ccccc2F)cc1 [Compound 1] | 10
9 | COc1cc(/C=N/Nc2nc3nonc3nc2Nc2ccccc2F)ccc1O [Compound 3] | 5
10 | COc1ccc(/C=N/Nc2nc3nonc3nc2Nc2ccc(F)cc2)cc1Br [Compound 4] | 10
11 | Brc1ccc(/C=N/Nc2nc3nonc3nc2Nc2cccc(Br)c2)cc1 [Compound 5] | 2
12 | Oc1ccc(Br)cc1/C=N/Nc1nc2nonc2nc1Nc1ccc(Cl)cc1 [Compound 6] | < 3
13 | COc1cc(/C=N/Nc2nc3nonc3nc2Nc2ccc(Cl)cc2)ccc1O [Compound 7] | 2
14 | Cc1ccccc1Nc1nc2nonc2nc1N/N=C/c1cc(Br)ccc1O [Compound 8] | 5
15 | COc1ccc(/C=N/Nc2nc3nonc3nc2Nc2ccccc2OC)cc1Br [Compound 9] | > 10
16 | COc1ccccc1Nc1nc2nonc2nc1N/N=C/c1ccccc1F [Compound 10] | > 10
17 | CCOC(=O)c1ccc(Nc2nc3nonc3nc2N/N=C/c2cccc3ccccc23)cc1 [Compound 11] | 4
18 | Cc1ccccc1Nc1nc2nonc2nc1N/N=C/c1cccc2ccccc12 [Compound 12] | > 10
19 | O=C(Nn1c(Cc2ccccc2)nc2ccccc2c1=O)c1c(O)c2cccc3c2n(c1=O)CCC3 [Compound 28] | 19
20 | CCCCn1c(=O)c(C(=O)Nc2nnc(C)s2)c(O)c2ccccc21 [Compound 30] | 10
21 | C/C(=N\C(=N)Nc1nc(C)c2cc(C)ccc2n1)c1ccccc1C(=O)O [Compound 33] | 5
22 | COC(=O)/C=C1/N=C(Nc2nc3cc(C)ccc3o2)NC1=O [Compound 35] | 3.5

system: MDA-MB-435; experiment: MTT cytotoxicity assay (Example 1); format: cell-based, human; conditions: 72 h
Description: as §1, §2, §3

Row | Structure (SMILES) | IC50 [µM]
23 | Oc1ccc(Br)cc1/C=N/Nc1nc2nonc2nc1Nc1ccc(Cl)cc1 [Compound 6] | 4 ± 1
24 | O=C(O)c1cc(-c2ccc(/C=N/Nc3nc4nonc4nc3Nc3ccccc3F)o2)ccc1Cl [Compound 17] | > 20
25 | C/C(=N\C(=N)Nc1nc(C)c2cc(C)ccc2n1)c1ccccc1C(=O)O [Compound 33] | 18

same assay, conditions: Homo sapiens, MDA-MB-435, 72 h

Row | Structure (SMILES) | IC50 [µM]
26 | COC(=O)c1ccc(/C=N/Nc2nc3nonc3nc2Nc2ccccc2F)cc1 [Compound 1] | 5
27 | COc1cc(/C=N/Nc2nc3nonc3nc2Nc2ccccc2F)ccc1O [Compound 3] | > 10
28 | COc1ccc(/C=N/Nc2nc3nonc3nc2Nc2ccc(F)cc2)cc1Br [Compound 4] | 10
29 | Brc1ccc(/C=N/Nc2nc3nonc3nc2Nc2cccc(Br)c2)cc1 [Compound 5] | > 10
30 | Oc1ccc(Br)cc1/C=N/Nc1nc2nonc2nc1Nc1ccc(Cl)cc1 [Compound 6] | < 3
31 | COc1cc(/C=N/Nc2nc3nonc3nc2Nc2ccc(Cl)cc2)ccc1O [Compound 7] | > 10
32 | Cc1ccccc1Nc1nc2nonc2nc1N/N=C/c1cc(Br)ccc1O [Compound 8] | > 10
33 | COc1ccc(/C=N/Nc2nc3nonc3nc2Nc2ccccc2OC)cc1Br [Compound 9] | > 20
34 | COc1ccccc1Nc1nc2nonc2nc1N/N=C/c1ccccc1F [Compound 10] | > 10
35 | CCOC(=O)c1ccc(Nc2nc3nonc3nc2N/N=C/c2cccc3ccccc23)cc1 [Compound 11] | > 10
36 | Cc1ccccc1Nc1nc2nonc2nc1N/N=C/c1cccc2ccccc12 [Compound 12] | > 10
37 | O=C(Nn1c(Cc2ccccc2)nc2ccccc2c1=O)c1c(O)c2cccc3c2n(c1=O)CCC3 [Compound 28] | > 10
38 | CCCCn1c(=O)c(C(=O)Nc2nnc(C)s2)c(O)c2ccccc21 [Compound 30] | 7
39 | C/C(=N\C(=N)Nc1nc(C)c2cc(C)ccc2n1)c1ccccc1C(=O)O [Compound 33] | 17
40 | COC(=O)/C=C1/N=C(Nc2nc3cc(C)ccc3o2)NC1=O [Compound 35] | 6

system: HCT116 p53+/+; experiment: MTT cytotoxicity assay (Example 1); format: cell-based; conditions: Homo sapiens, HCT-116, 72 h, MTT, 72 h
Description: as §1, §2, §3

Row | Structure (SMILES) | IC50 [µM]
41 | COC(=O)c1ccc(/C=N/Nc2nc3nonc3nc2Nc2ccccc2F)cc1 [Compound 1] | > 10
42 | COc1cc(/C=N/Nc2nc3nonc3nc2Nc2ccccc2F)ccc1O [Compound 3] | > 10
43 | COc1ccc(/C=N/Nc2nc3nonc3nc2Nc2ccc(F)cc2)cc1Br [Compound 4] | 4
44 | Brc1ccc(/C=N/Nc2nc3nonc3nc2Nc2cccc(Br)c2)cc1 [Compound 5] | 2
45 | Oc1ccc(Br)cc1/C=N/Nc1nc2nonc2nc1Nc1ccc(Cl)cc1 [Compound 6] | < 3
46 | COc1cc(/C=N/Nc2nc3nonc3nc2Nc2ccc(Cl)cc2)ccc1O [Compound 7] | > 10
47 | Cc1ccccc1Nc1nc2nonc2nc1N/N=C/c1cc(Br)ccc1O [Compound 8] | 2
48 | COc1ccc(/C=N/Nc2nc3nonc3nc2Nc2ccccc2OC)cc1Br [Compound 9] | > 20
49 | COc1ccccc1Nc1nc2nonc2nc1N/N=C/c1ccccc1F [Compound 10] | > 10
50 | CCOC(=O)c1ccc(Nc2nc3nonc3nc2N/N=C/c2cccc3ccccc23)cc1 [Compound 11] | > 10
51 | Cc1ccccc1Nc1nc2nonc2nc1N/N=C/c1cccc2ccccc12 [Compound 12] | > 10
52 | O=C(Nn1c(Cc2ccccc2)nc2ccccc2c1=O)c1c(O)c2cccc3c2n(c1=O)CCC3 [Compound 28] | > 20
53 | CCCCn1c(=O)c(C(=O)Nc2nnc(C)s2)c(O)c2ccccc21 [Compound 30] | 6 ± 3
54 | C/C(=N\C(=N)Nc1nc(C)c2cc(C)ccc2n1)c1ccccc1C(=O)O [Compound 33] | 18
55 | COC(=O)/C=C1/N=C(Nc2nc3cc(C)ccc3o2)NC1=O [Compound 35] | 5

same assay, conditions: MTT, 72 h

Row | Structure (SMILES) | IC50 [µM]
56 | Oc1ccc(Br)cc1/C=N/Nc1nc2nonc2nc1Nc1ccc(Cl)cc1 [Compound 6] | 2.7 ± 0.6
57 | O=C(O)c1cc(-c2ccc(/C=N/Nc3nc4nonc4nc3Nc3ccccc3F)o2)ccc1Cl [Compound 17] | 7 ± 1

system: HCT116 p53−/−; experiment: MTT cytotoxicity assay (Example 1); format: cell-based; conditions: Homo sapiens, HCT-116, 72 h, MTT, 72 h
Description: as §1, §2, §3

Row | Structure (SMILES) | IC50 [µM]
58 | COC(=O)c1ccc(/C=N/Nc2nc3nonc3nc2Nc2ccccc2F)cc1 [Compound 1] | 10
59 | COc1cc(/C=N/Nc2nc3nonc3nc2Nc2ccccc2F)ccc1O [Compound 3] | > 10
60 | COc1ccc(/C=N/Nc2nc3nonc3nc2Nc2ccc(F)cc2)cc1Br [Compound 4] | 3
61 | Brc1ccc(/C=N/Nc2nc3nonc3nc2Nc2cccc(Br)c2)cc1 [Compound 5] | 1.1
62 | Oc1ccc(Br)cc1/C=N/Nc1nc2nonc2nc1Nc1ccc(Cl)cc1 [Compound 6] | < 3
63 | COc1cc(/C=N/Nc2nc3nonc3nc2Nc2ccc(Cl)cc2)ccc1O [Compound 7] | 5.5
64 | Cc1ccccc1Nc1nc2nonc2nc1N/N=C/c1cc(Br)ccc1O [Compound 8] | 1.1 ± 0.4
65 | COc1ccc(/C=N/Nc2nc3nonc3nc2Nc2ccccc2OC)cc1Br [Compound 9] | > 10
66 | COc1ccccc1Nc1nc2nonc2nc1N/N=C/c1ccccc1F [Compound 10] | > 10
67 | CCOC(=O)c1ccc(Nc2nc3nonc3nc2N/N=C/c2cccc3ccccc23)cc1 [Compound 11] | 2
68 | Cc1ccccc1Nc1nc2nonc2nc1N/N=C/c1cccc2ccccc12 [Compound 12] | 10
69 | O=C(Nn1c(Cc2ccccc2)nc2ccccc2c1=O)c1c(O)c2cccc3c2n(c1=O)CCC3 [Compound 28] | > 10
70 | CCCCn1c(=O)c(C(=O)Nc2nnc(C)s2)c(O)c2ccccc21 [Compound 30] | 8
71 | C/C(=N\C(=N)Nc1nc(C)c2cc(C)ccc2n1)c1ccccc1C(=O)O [Compound 33] | 5
72 | COC(=O)/C=C1/N=C(Nc2nc3cc(C)ccc3o2)NC1=O [Compound 35] | 4.2

same assay, conditions: MTT, 72 h

Row | Structure (SMILES) | IC50 [µM]
73 | COc1ccc(/C=N/Nc2nc3nonc3nc2Nc2ccc(F)cc2)cc1Br [Compound 4] | 2
74 | Brc1ccc(/C=N/Nc2nc3nonc3nc2Nc2cccc(Br)c2)cc1 [Compound 5] | 1.2
75 | Oc1ccc(Br)cc1/C=N/Nc1nc2nonc2nc1Nc1ccc(Cl)cc1 [Compound 6] | 1.6 ± 0.7
76 | O=C(O)c1cc(-c2ccc(/C=N/Nc3nc4nonc4nc3Nc3ccccc3F)o2)ccc1Cl [Compound 17] | > 10
77 | COC(=O)/C=C1/N=C(Nc2nc3cc(C)ccc3o2)NC1=O [Compound 35] | 3.4

system: NIH3T3; experiment: MTT cytotoxicity assay (Example 1); format: cell-based, mouse; conditions: 72 h
Description: as §1, §2, §3

Row | Structure (SMILES) | IC50 [µM]
78 | O=C(O)c1cc(-c2ccc(/C=N/Nc3nc4nonc4nc3Nc3ccccc3F)o2)ccc1Cl [Compound 17] | > 10
79 | COC(=O)/C=C1/N=C(Nc2nc3cc(C)ccc3o2)NC1=O [Compound 35] | 6

same assay, conditions: Mus musculus, NIH3T3, 72 h

Row | Structure (SMILES) | IC50 [µM]
80 | COC(=O)c1ccc(/C=N/Nc2nc3nonc3nc2Nc2ccccc2F)cc1 [Compound 1] | > 10
81 | COc1cc(/C=N/Nc2nc3nonc3nc2Nc2ccccc2F)ccc1O [Compound 3] | > 10
82 | COc1ccc(/C=N/Nc2nc3nonc3nc2Nc2ccc(F)cc2)cc1Br [Compound 4] | 6
83 | Brc1ccc(/C=N/Nc2nc3nonc3nc2Nc2cccc(Br)c2)cc1 [Compound 5] | 1
84 | Oc1ccc(Br)cc1/C=N/Nc1nc2nonc2nc1Nc1ccc(Cl)cc1 [Compound 6] | 2 ± 0.5
85 | COc1cc(/C=N/Nc2nc3nonc3nc2Nc2ccc(Cl)cc2)ccc1O [Compound 7] | > 10
86 | Cc1ccccc1Nc1nc2nonc2nc1N/N=C/c1cc(Br)ccc1O [Compound 8] | > 10
87 | COc1ccc(/C=N/Nc2nc3nonc3nc2Nc2ccccc2OC)cc1Br [Compound 9] | > 10
88 | COc1ccccc1Nc1nc2nonc2nc1N/N=C/c1ccccc1F [Compound 10] | > 10
89 | CCOC(=O)c1ccc(Nc2nc3nonc3nc2N/N=C/c2cccc3ccccc23)cc1 [Compound 11] | 2
90 | Cc1ccccc1Nc1nc2nonc2nc1N/N=C/c1cccc2ccccc12 [Compound 12] | 10
91 | O=C(Nn1c(Cc2ccccc2)nc2ccccc2c1=O)c1c(O)c2cccc3c2n(c1=O)CCC3 [Compound 28] | > 10
92 | CCCCn1c(=O)c(C(=O)Nc2nnc(C)s2)c(O)c2ccccc21 [Compound 30] | 5
93 | C/C(=N\C(=N)Nc1nc(C)c2cc(C)ccc2n1)c1ccccc1C(=O)O [Compound 33] | 14
94 | COC(=O)/C=C1/N=C(Nc2nc3cc(C)ccc3o2)NC1=O [Compound 35] | 11
